{"source": "patent USRE48267E1", "about": "“Variants of C-type natriuretic peptide” (priority 2009, dated 2020)", "key": {"NPR-B": {"target": "T1, NPR-B (Mus musculus, UniProt Q6VVW5)", "T1 construct": "Murine NIH3T3 cells express endogenously the CNP signaling receptor, NPR-B; endogenous in cells; host or cells: NIH3T3", "T1 sequence (Q6VVW5 17-1047)": "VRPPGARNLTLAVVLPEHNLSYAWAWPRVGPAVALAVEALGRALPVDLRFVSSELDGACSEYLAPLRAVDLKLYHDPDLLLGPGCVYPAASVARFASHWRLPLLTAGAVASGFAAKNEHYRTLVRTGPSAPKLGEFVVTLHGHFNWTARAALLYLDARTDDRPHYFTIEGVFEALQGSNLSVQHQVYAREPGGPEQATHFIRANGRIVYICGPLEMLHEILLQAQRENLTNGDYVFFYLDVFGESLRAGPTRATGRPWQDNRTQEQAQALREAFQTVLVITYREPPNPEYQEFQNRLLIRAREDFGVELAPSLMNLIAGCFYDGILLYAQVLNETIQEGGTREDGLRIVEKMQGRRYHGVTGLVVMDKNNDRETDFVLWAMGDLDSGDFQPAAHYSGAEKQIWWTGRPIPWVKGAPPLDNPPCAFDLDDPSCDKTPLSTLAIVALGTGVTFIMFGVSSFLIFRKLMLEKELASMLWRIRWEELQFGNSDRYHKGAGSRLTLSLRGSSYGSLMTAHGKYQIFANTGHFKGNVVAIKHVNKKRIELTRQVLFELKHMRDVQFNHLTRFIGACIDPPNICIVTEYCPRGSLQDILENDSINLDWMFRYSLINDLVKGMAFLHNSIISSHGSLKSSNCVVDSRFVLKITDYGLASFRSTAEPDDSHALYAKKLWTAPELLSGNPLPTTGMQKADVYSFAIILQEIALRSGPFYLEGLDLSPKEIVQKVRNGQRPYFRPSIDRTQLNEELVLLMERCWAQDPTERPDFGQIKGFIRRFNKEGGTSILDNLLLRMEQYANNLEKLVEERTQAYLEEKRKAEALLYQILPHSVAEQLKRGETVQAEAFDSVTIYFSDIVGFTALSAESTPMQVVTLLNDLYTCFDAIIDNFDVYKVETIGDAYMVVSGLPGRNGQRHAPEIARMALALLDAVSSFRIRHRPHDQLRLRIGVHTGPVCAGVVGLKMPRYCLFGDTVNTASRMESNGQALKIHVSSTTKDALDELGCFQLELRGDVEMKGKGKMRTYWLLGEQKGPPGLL", "experiment": "stimulation of cGMP production in NIH3T3 cells", "assay_type": "cell-based, murine", "conditions": "NIH3T3 cells", "how_it_was_run": "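NIH3T3 cells (endogenous murine NPR-B) preincubated 15 min at 37° C. in PBS/DMEM with 0.75 mM isobutylmethylxanthine, then given CNP variant for 15 min at 37° C. cGMP in lysates by CatchPoint cGMP assay, duplicates. Values at 10 nM or 1 uM variant normalized to cell number and to 1 uM wtCNP22.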"}, "cGMP": {"tested_on": "cGMP", "experiment": "plasma cGMP concentration in rats", "assay_type": "in vivo, rat", "protocol": "Recombinant wild-type CNP22, CNP37 and PEO24-GANRR-CNP22 (K4R) (SEQ ID NO: 36) were evaluated.\nPlasma cGMP concentrations in the sample at 5, 30, 60 and 90 minutes after i.v. dosing, or at 5, 30, 60, 120 and 180 minutes after s.c. dosing, were determined by the competitive RIA using anti-cGMP monoclonal antibody. Standard samples were prepared. 100 uL of the assay samples (standard solutions for the calibration curve or the diluted plasma samples for cGMP determination) were transferred to test tubes. Then 100 uL of anti-cGMP monoclonal antibody solution and 100 uL of ^125I-labeled succinyl cGMP tyrosine methyl ester solution were added to the tubes, respectively. All tubes were kept at 4° C. overnight. After the addition of 500 uL dextran charcoal solution, the tubes were vortexed and then placed on ice for 10 minutes. The reaction mixture was centrifuged and 500 uL of the supernatant was transferred from each sample to a new test tube. The amount of radiation (gamma line) in the supernatant was measured by a gamma-counter."}, "FGFR3^ach mice": {"tested_on": "FGFR3^ach mice", "experiment": "bone growth biomarkers in FGFR3^ach mice", "assay_type": "in vivo, mouse", "conditions": "200 nmol/kg s.c. daily, Day 36", "protocol": "Plasma and serum were collected during the study. Harvested plasma was stored with 10× protease inhibitor at −80° C. until analysis. cGMP levels were measured 15 minutes post-injection on Day 36 from K2-ETDA plasma collection tubes. Fragments of cleaved collagen type II (cartilage-associated biomarkers), osteocalcin (bone-associated biomarker), and IgG (relating to immunogenicity) were measured from terminal bleed serum at the end of the study (Day 37). cGMP was measured using a commercially available ELISA kit (Cayman Chemical Co., Cat. No. 581021.1), cleaved collagen type II (Cartilaps) was measured using a commercially available kit from Immunodiagnostic Systems (Cat. No. 3CAL4000), and osteocalcin was measured using a commercially available kit from Biomedical Technologies Inc. (Stoughton, Mass.)."}}, "note": "Where a SMILES comes first, the peptide text is derived from it. Bridges are numbered along the chain shown (N, C = ends). The star is where a group is joined. MeO(CH2CH2O)23CH2CH2CO = COCCOCCOCCOCCOCCOCCOCCOCCOCCOCCOCCOCCOCCOCCOCCOCCOCCOCCOCCOCCOCCOCCOCCOCCC(=O)*"}
{"smiles": "CC[C@H](C)[C@@H]1NC(=O)[C@H](CCCNC(=N)N)NC(=O)[C@H](CC(=O)O)NC(=O)[C@H](CC(C)C)NC(=O)[C@H](CCCCN)NC(=O)[C@H](CC(C)C)NC(=O)CNC(=O)[C@H](Cc2ccccc2)NC(=O)[C@@H](NC(=O)CNC(=O)[C@H](CCCNC(=N)N)NC(=O)[C@H](CO)NC(=O)[C@H](CC(C)C)NC(=O)CNC(=O)[C@H](CCCNC(=N)N)NC(=O)[C@H](CCCNC(=N)N)NC(=O)[C@H](CC(N)=O)NC(=O)[C@H](C)NC(=O)CNC(=O)CCOCCOCCOCCOCCOCCOCCOCCOCCOCCOCCOCCOCCOCCOCCOCCOCCOCCOCCOCCOCCOCCOCCOCCOC)CSSC[C@@H](C(=O)O)NC(=O)CNC(=O)[C@H](CC(C)C)NC(=O)CNC(=O)[C@H](CO)NC(=O)[C@H](CCSC)NC(=O)[C@H](CO)NC(=O)CNC1=O", "note": "[PEO24-GANRR-CNP22(K4R)] ({MeO(CH2CH2O)23CH2CH2CO}-GANRRGLSRGCFGLKLDRIGSMSGLGC-OH; disulfide 11-27)", "values": [{"measurement": "NPR-B stimulation activity / cGMP production compared with wtCNP22 (in words)", "setting": "NPR-B", "value": "stimulated greater cGMP production than PEO24-CNP22 and PEO24-CNP22 (K4R)"}, {"measurement": "plasma levels of cGMP compared with CNP22", "setting": "cGMP; i.v. 20 nmol/kg, at 30, 60 and 90 minutes", "value": "much higher plasma levels of cGMP"}, {"measurement": "plasma concentrations of cGMP compared with CNP22", "setting": "cGMP; s.c. 50 nmol/kg", "value": "substantially higher plasma concentrations of cGMP"}, {"measurement": "cGMP plasma levels 15 minutes post-injection, compared to vehicle", "setting": "FGFR3^ach mice", "value": "increase"}]}
